We go through one substance from patent US5235039A, “Substrates for HIV protease” (Eli Lilly and Company, priority 1991, dated 1993).

The target in this assay is T1, HIV-1 protease (HIV-1 M:B_HXB2R, UniProt P04585).
T1 construct: enzyme solution in MES-ALB buffer
Put plainly: HIV-1 protease inhibitor assay (particle concentration fluorescence, Pandex). It counts as biochemical. The conditions noted are these: inhibitor at a concentration of about 7 μM; FIG. 1. The method, then:
The modified decapeptide is dissolved in a suitable buffer at a pH between about 5 and about 6 to form a solution at a desirable concentration, e.g. about 1.5 μg/ml. A separate solution of the protease in the same buffer is prepared at a sufficient concentration of protease to hydrolyze all substrate. To each well of a round-bottom, 96-well plate, e.g. a polystyrene microtiter plate, is added the enzyme solution followed by a buffered solution of the inhibitor compound. The solution of the inhibitor may be diluted in 20% aqueous dimethylsulfoxide when necessary for solubility. The plates are allowed to stand for about one hour at about room temperature before the substrate solution is added to each well. […] Unbound fluorescence is removed by filtration and subsequent washing with buffer. Any bound fluorescence is detected by excitation at 485 nm and reading the resulting epifluorescence at 535 nm. The amount of fluorescence indicates the extent to which the enzymatic reaction is inhibited.
As described hereinabove the Pandex Plates used in the assay method are 96-well two-chamber plates (upper and lower chambers) wherein the chambers are separated by a […] pore size membrane. […] Any fluorescent marked cleavage fragment (unbound fluorescence) in the wells is washed from the well and out of the plate. […]

Turning to Ac-Nal-Pro-Phe-Val-Sta-Leu-Phe-NH2, the “percent inhibition of the protease” value is recorded as 100%.
